PubChem BioAssay AID256 (DTP/NCI, 2004)
Where “and” joins values, the source holds several entries; their conditions need not be identical. Equal entries are not always repeated. Toxic doses and inconclusive results are not listed. Rule for the calls: active = survival T/C of 150% or more; inactive = T/C below 125% in these data.

Tested on: CD2F1 mice, L1210 leukemia ip, survival T/C
Test: NCI In Vivo Anticancer Drug Screen. Data for tumor model L1210 Leukemia (intraperitoneal) in CD2F1 (CDF1) mice
Conditions: higher = longer survival
In short: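 Each value reflects a quotient of treated over vehicle control outcomes in mice with a transplanted tumor.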

[1] = endpoint: mean survival time, dose: 100.0 mg/kg/injection, schedule: Q01DX009 (ip), vehicle: saline with Tween-80
[2] = endpoint: mean survival time, dose: 200.0 mg/kg/injection, schedule: Q01DX009 (ip), vehicle: saline with Tween-80
[3] = endpoint: mean survival time, dose: 400.0 mg/kg/injection, schedule: Q01DX009 (ip), vehicle: saline with Tween-80
[4] = endpoint: mean survival time, dose: 75.0 mg/kg/injection, schedule: Q01DX001 (ip), vehicle: saline
[5] = endpoint: mean survival time, dose: 100.0 mg/kg/injection, schedule: Q04DX003 (ip), vehicle: saline
[6] = endpoint: mean survival time, dose: 200.0 mg/kg/injection, schedule: Q04DX003 (ip), vehicle: saline
[7] = endpoint: mean survival time, dose: 400.0 mg/kg/injection, schedule: Q04DX003 (ip), vehicle: saline
[8] = endpoint: mean survival time, dose: 100.0 mg/kg/injection, schedule: Q04DX003 (ip), vehicle: saline with Tween-80
[9] = endpoint: mean survival time, dose: 200.0 mg/kg/injection, schedule: Q04DX003 (ip), vehicle: saline with Tween-80
[10] = endpoint: mean survival time, dose: 400.0 mg/kg/injection, schedule: Q04DX003 (ip), vehicle: saline with Tween-80
[11] = endpoint: mean survival time, dose: 100.0 mg/kg/injection, schedule: Q04DX002 (ip), vehicle: saline with Tween-80
[12] = endpoint: mean survival time, dose: 200.0 mg/kg/injection, schedule: Q04DX002 (ip), vehicle: saline with Tween-80
[13] = endpoint: mean survival time, dose: 400.0 mg/kg/injection, schedule: Q04DX002 (ip), vehicle: saline with Tween-80
[14] = endpoint: mean survival time, dose: 50.0 mg/kg/injection, schedule: Q01DX009 (ip), vehicle: saline with Tween-80
[15] = endpoint: mean survival time, dose: 6.25 mg/kg/injection, schedule: Q01DX009 (ip), vehicle: saline
[16] = endpoint: mean survival time, dose: 12.5 mg/kg/injection, schedule: Q01DX009 (ip), vehicle: saline
[17] = endpoint: mean survival time, dose: 50.0 mg/kg/injection, schedule: Q01DX009 (ip), vehicle: Klucel (hydroxypropylcellulose) (HPC)
[18] = endpoint: mean survival time, dose: 100.0 mg/kg/injection, schedule: Q01DX009 (ip), vehicle: Klucel (hydroxypropylcellulose) (HPC)
[19] = endpoint: mean survival time, dose: 200.0 mg/kg/injection, schedule: Q01DX009 (ip), vehicle: Klucel (hydroxypropylcellulose) (HPC)

Measured: T/C

COc1cccc(/C=N/NC(=O)CNC(=O)Nc2cccc(Cl)c2)c1OC
inactive: [1] 101 % of control | [2] 109 % of control | [3] 103 % of control

CCN(CC)CCSC(=O)C(O)(c1ccccc1)c1cccc(C)c1 (configuration not stated)
inactive: [4] 105 % of control

CCC(C)C(=O)CN(C)c1ccccc1 (configuration not stated)
inactive: [5] 102 % of control | [6] 102 % of control | [7] 100 % of control

CC(=O)Nc1ccc(/C=N\NC(=O)C2CC2)cc1
inactive: [8] 93 % of control | [9] 96 % of control | [10] 93 % of control

S=C(NC1CCCCC1)N1CCC(CCCC2CCN(C(=S)NC3CCCCC3)CC2)CC1
inactive: [8] 87 % of control | [9] 94 % of control | [10] 102 % of control

O=C1CCCCC1(c1ccccc1)c1ccccc1
inactive: [1] 101 % of control | [8] 101 % of control | [2] 97 % of control | [9] 99 % of control | [3] 98 % of control | [10] 97 % of control

O=C(O)COc1cc(F)c(Cl)cc1F
inactive: [11] 102 % of control | [12] 105 % of control | [13] 109 % of control

CC1(C)CC(=O)C2(C)CCC3(CC2C1)OCCO3 (configuration not stated)
inactive: [8] 96 % of control | [9] 96 % of control | [10] 96 % of control

C=CCS(=O)(=O)O
inactive: endpoint: mean survival time, dose: 100.0 mg/kg/injection, schedule: Q01DX009 (ip), vehicle: saline sonified 96 % of control | [5] 100 % of control | endpoint: mean survival time, dose: 200.0 mg/kg/injection, schedule: Q01DX009 (ip), vehicle: saline sonified 96 % of control | [6] 107 % of control | endpoint: mean survival time, dose: 400.0 mg/kg/injection, schedule: Q01DX009 (ip), vehicle: saline sonified 96 % of control | [7] 107 % of control

Cc1ccc(NC(=O)Oc2ccc(Br)cc2)cc1[N+](=O)[O-]
inactive: [14] 98 % of control | [1] 102 % of control | [2] 98 % of control

CC(SC(=S)N(C)C)C(=O)O (configuration not stated)
inactive: [8] 96 % of control | [9] 101 % of control | [10] 101 % of control

COc1ccc(OC)c2c1CC(C(C)=O)CC2=O (configuration not stated)
inactive: endpoint: mean survival time, dose: 12.5 mg/kg/injection, schedule: Q01DX009 (ip), vehicle: water 98 % of control | endpoint: mean survival time, dose: 25.0 mg/kg/injection, schedule: Q01DX009 (ip), vehicle: water 102 % of control | endpoint: mean survival time, dose: 50.0 mg/kg/injection, schedule: Q01DX009 (ip), vehicle: water 106 % of control | endpoint: mean survival time, dose: 100.0 mg/kg/injection, schedule: Q01DX009 (ip), vehicle: water 100 % of control | endpoint: mean survival time, dose: 200.0 mg/kg/injection, schedule: Q01DX009 (ip), vehicle: water 92 % of control

Cn1c(=O)c2c(ncn2CCCNCC(O)c2ccc(O)c(CO)c2)n(C)c1=O (configuration not stated)
inactive: endpoint: mean survival time, dose: 12.5 mg/kg/injection, schedule: Q01DX005 (ip), vehicle: water 96 % of control | endpoint: mean survival time, dose: 25.0 mg/kg/injection, schedule: Q01DX005 (ip), vehicle: water 96 % of control | endpoint: mean survival time, dose: 50.0 mg/kg/injection, schedule: Q01DX005 (ip), vehicle: water 100 % of control | endpoint: mean survival time, dose: 100.0 mg/kg/injection, schedule: Q01DX005 (ip), vehicle: water 96 % of control | endpoint: mean survival time, dose: 200.0 mg/kg/injection, schedule: Q01DX005 (ip), vehicle: water 98 % of control

O=C1c2ccccc2C(=O)c2c(NC3CCCCC3)ccc(Nc3ccc(S(=O)(=O)O)cc3)c21
inactive: [4] 100 % of control | endpoint: mean survival time, dose: 150.0 mg/kg/injection, schedule: Q01DX001 (ip), vehicle: saline 100 % of control | endpoint: mean survival time, dose: 300.0 mg/kg/injection, schedule: Q01DX001 (ip), vehicle: saline 103 % of control

O=C(O)c1cc(Br)c(Br)s1
inactive: [8] 94 % of control | [9] 94 % of control

OCCc1cc[nH]c1
inactive: [1] 104 % of control | [8] 95 % of control | [2] 101 % of control | [9] 97 % of control | [3] 113 % of control | [10] 97 % of control

Clc1nc2n[nH]nc2nc1Cl
inactive: endpoint: mean survival time, dose: 3.13 mg/kg/injection, schedule: Q01DX009 (ip), vehicle: saline 97 % of control | [15] 100 % of control | [16] 95 % of control

C/C=C/c1cc2n(c1)C(=O)c1cc(OC3OC(C)C(NC)C(C)(O)C3O)c(C)c(O)c1NC2O (configuration not stated)
inactive: endpoint: mean survival time, dose: 4.0 micrograms/kg/injection, schedule: Q01DX009 (ip), vehicle: saline 108 % of control | endpoint: mean survival time, dose: 8.0 micrograms/kg/injection, schedule: Q01DX009 (ip), vehicle: saline 110 % of control

N#C/C(=C\c1c(Cl)cccc1Cl)c1ccc([N+](=O)[O-])cc1
inactive: [1] 97 % of control | [2] 88 % of control | [3] 91 % of control

Cc1cc(=O)n(Cc2ccccc2)n1-c1ccccc1
inactive: endpoint: mean survival time, dose: 25.0 mg/kg/injection, schedule: Q04DX002 (ip), vehicle: saline with Tween-80 97 % of control | endpoint: mean survival time, dose: 50.0 mg/kg/injection, schedule: Q04DX002 (ip), vehicle: saline with Tween-80 100 % of control | [11] 87 % of control | [8] 98 % of control

CCOC(=O)C1CC(C(=O)OCC)C(=O)C1=O (configuration not stated)
inactive: [1] 105 % of control | [2] 103 % of control | [3] 97 % of control

N#CCCCN1C(=O)c2ccccc2C1=O
inactive: [17] 99 % of control | [18] 97 % of control | [19] 99 % of control

C=CC1(O)CC2CCC1C2 (configuration not stated)
inactive: [8] 106 % of control | [9] 93 % of control | [10] 101 % of control

O=C(O)c1ccccc1C(=O)Nc1nccs1
inactive: [17] 97 % of control | [18] 105 % of control | [19] 101 % of control

O=S(=O)(C(Br)CBr)C(Br)CBr (configuration not stated)
inactive: [8] 95 % of control

CC(C)(CO)CCCCCCC(C)(C)CO
inactive: [14] 98 % of control | [1] 106 % of control | [2] 106 % of control

CC(=O)Nc1nc(C)c(CC/C=C/c2ccc([N+](=O)[O-])cc2)c(=O)[nH]1
inactive: [8] 94 % of control | [9] 97 % of control | [10] 90 % of control

CCOP(=O)(OCC)OCC1OC(n2cnc3c(N)ncnc32)C(O)C1O (configuration not stated)
inactive: endpoint: median survival time, dose: 12.5 mg/kg/injection, schedule: Q01DX005 (ip), vehicle: distilled water + Tween-80 96 % of control | endpoint: median survival time, dose: 25.0 mg/kg/injection, schedule: Q01DX005 (ip), vehicle: distilled water + Tween-80 96 % of control | endpoint: median survival time, dose: 50.0 mg/kg/injection, schedule: Q01DX005 (ip), vehicle: distilled water + Tween-80 103 % of control | endpoint: median survival time, dose: 100.0 mg/kg/injection, schedule: Q01DX005 (ip), vehicle: distilled water + Tween-80 102 % of control | endpoint: median survival time, dose: 200.0 mg/kg/injection, schedule: Q01DX005 (ip), vehicle: distilled water + Tween-80 101 % of control

O=C(/C=C/c1ccccc1)Nc1ccccc1Cl
inactive: [11] 105 % of control | [12] 98 % of control | [13] 98 % of control

CN(C)c1nc(N)nc(-c2cc[n+]([O-])cc2)n1
inactive: endpoint: mean survival time, dose: 100.0 mg/kg/injection, schedule: Q04DX002 (ip), vehicle: saline 103 % of control | endpoint: mean survival time, dose: 200.0 mg/kg/injection, schedule: Q04DX002 (ip), vehicle: saline 88 % of control

N#CCCOS(=O)(=O)c1cccc([N+](=O)[O-])c1
inactive: [8] 98 % of control | [9] 101 % of control | [10] 93 % of control

O=C(CC1CCCCC1)N/N=C/c1cccc([N+](=O)[O-])c1
inactive: [1] 90 % of control | [2] 93 % of control | [3] 90 % of control

N#CCc1ccccc1
inactive: endpoint: mean survival time, dose: 10.0 mg/kg/injection, schedule: Q01DX001 (ip), vehicle: saline 105 % of control | endpoint: mean survival time, dose: 20.0 mg/kg/injection, schedule: Q01DX001 (ip), vehicle: saline 105 % of control

CC1(C)N=C(N)N=C(N)N1c1ccc(OCC(=O)N2CCOCC2)c(Cl)c1
inactive: [15] 98 % of control | [16] 97 % of control | endpoint: mean survival time, dose: 25.0 mg/kg/injection, schedule: Q01DX009 (ip), vehicle: saline 92 % of control | endpoint: mean survival time, dose: 50.0 mg/kg/injection, schedule: Q01DX009 (ip), vehicle: saline 98 % of control | endpoint: mean survival time, dose: 100.0 mg/kg/injection, schedule: Q01DX009 (ip), vehicle: saline 98 % of control

Nc1nc(N)c2nc(CSc3ccc(C(=O)NC(CCC(=O)O)C(=O)O)cc3)cnc2n1 (configuration not stated)
inactive: endpoint: mean survival time, dose: 1.5 mg/kg/injection, schedule: Q01DX009 (ip), vehicle: distilled water + Tween-80 96 % of control | endpoint: mean survival time, dose: 3.0 mg/kg/injection, schedule: Q01DX009 (ip), vehicle: distilled water + Tween-80 86 % of control | endpoint: mean survival time, dose: 6.0 mg/kg/injection, schedule: Q01DX009 (ip), vehicle: distilled water + Tween-80 100 % of control and 101 % of control | endpoint: mean survival time, dose: 12.0 mg/kg/injection, schedule: Q01DX009 (ip), vehicle: distilled water + Tween-80 115 % of control and 110 % of control | endpoint: mean survival time, dose: 24.0 mg/kg/injection, schedule: Q01DX009 (ip), vehicle: distilled water + Tween-80 117 % of control and 120 % of control
